Experimental data from ChEMBL document CHEMBL5291721, “A preclinical secondary pharmacology resource illuminates target-adverse drug reaction associations of marketed drugs” (Nat Commun, 2023).

Assays:
[1] = molecular target: T1, Prostaglandin G/H synthase 1 (Rattus norvegicus, UniProt Q63921); type: functional
T1 sequence (Q63921 whole entry): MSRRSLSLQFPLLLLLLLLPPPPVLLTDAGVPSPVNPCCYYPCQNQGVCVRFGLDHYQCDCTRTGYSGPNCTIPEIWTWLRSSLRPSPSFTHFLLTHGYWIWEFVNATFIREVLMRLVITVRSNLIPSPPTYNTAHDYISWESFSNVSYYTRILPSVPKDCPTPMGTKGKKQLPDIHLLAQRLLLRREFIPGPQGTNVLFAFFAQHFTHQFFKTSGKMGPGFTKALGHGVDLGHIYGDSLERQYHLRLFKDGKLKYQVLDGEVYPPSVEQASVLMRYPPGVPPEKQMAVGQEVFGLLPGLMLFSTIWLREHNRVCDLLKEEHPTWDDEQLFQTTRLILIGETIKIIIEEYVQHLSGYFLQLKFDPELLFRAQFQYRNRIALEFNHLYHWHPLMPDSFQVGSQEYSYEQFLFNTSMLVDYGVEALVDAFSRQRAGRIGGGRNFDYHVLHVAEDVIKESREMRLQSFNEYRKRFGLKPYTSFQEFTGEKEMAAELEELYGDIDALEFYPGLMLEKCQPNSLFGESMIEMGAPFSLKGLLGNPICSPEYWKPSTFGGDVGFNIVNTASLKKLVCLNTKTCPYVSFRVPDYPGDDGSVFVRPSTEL

[2] = molecular target: T2, Equilibrative nucleoside transporter 1 (Homo sapiens, UniProt Q99808)
T2 sequence (Q99808 whole entry): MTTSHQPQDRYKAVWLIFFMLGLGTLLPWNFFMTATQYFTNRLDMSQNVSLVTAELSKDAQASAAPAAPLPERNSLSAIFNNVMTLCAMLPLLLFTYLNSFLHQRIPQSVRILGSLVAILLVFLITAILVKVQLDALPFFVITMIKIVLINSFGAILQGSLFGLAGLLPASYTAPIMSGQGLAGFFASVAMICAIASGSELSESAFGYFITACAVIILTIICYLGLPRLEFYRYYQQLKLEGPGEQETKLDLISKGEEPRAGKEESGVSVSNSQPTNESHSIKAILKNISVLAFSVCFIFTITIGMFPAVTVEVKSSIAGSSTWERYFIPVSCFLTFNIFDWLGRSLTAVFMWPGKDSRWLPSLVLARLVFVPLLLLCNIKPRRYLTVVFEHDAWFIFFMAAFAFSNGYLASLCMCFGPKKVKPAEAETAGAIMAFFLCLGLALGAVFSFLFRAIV

[3] = molecular target: 3',5'-cyclic-AMP phosphodiesterase 4D (Homo sapiens, UniProt Q08499); type: functional
Chain of 3',5'-cyclic-AMP phosphodiesterase 4D (Q08499 whole entry): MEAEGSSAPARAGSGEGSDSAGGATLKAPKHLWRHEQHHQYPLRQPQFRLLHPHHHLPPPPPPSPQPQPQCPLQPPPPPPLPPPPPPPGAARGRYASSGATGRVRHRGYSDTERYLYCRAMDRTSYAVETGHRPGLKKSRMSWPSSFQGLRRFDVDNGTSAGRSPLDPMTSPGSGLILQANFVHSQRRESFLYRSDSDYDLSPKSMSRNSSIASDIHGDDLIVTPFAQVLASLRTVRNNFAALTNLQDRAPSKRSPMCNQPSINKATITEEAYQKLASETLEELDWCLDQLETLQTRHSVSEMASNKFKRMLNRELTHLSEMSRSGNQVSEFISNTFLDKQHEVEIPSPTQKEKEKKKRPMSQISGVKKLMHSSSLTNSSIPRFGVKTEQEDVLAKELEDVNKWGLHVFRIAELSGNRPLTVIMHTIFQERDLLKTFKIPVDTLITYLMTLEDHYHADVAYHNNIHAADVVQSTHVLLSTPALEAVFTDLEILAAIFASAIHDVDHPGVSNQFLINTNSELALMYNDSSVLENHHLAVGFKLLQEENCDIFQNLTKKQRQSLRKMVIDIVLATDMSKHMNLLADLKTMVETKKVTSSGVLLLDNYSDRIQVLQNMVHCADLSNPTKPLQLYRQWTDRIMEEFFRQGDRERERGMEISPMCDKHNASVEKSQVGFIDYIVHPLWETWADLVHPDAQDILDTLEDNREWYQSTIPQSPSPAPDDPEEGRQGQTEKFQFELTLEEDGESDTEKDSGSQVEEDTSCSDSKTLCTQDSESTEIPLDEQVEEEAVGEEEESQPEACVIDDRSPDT

[4] = molecular target: T3, Alpha-2C adrenergic receptor (Homo sapiens, UniProt P18825); type: functional
T3 sequence (P18825 whole entry): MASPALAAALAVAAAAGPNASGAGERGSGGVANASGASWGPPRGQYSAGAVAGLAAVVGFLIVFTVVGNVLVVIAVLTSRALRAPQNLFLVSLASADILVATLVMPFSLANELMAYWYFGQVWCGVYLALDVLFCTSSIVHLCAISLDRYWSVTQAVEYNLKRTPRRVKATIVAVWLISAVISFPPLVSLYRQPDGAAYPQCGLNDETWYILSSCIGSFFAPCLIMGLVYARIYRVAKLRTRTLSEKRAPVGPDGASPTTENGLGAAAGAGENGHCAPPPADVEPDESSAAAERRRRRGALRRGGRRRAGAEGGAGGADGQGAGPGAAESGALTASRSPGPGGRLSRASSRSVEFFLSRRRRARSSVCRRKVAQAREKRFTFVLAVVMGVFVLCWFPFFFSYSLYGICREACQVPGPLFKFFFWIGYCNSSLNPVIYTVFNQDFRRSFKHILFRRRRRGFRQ

[5] = molecular target: Beta-2 adrenergic receptor (Homo sapiens, UniProt P07550)
Chain of Beta-2 adrenergic receptor (P07550 whole entry): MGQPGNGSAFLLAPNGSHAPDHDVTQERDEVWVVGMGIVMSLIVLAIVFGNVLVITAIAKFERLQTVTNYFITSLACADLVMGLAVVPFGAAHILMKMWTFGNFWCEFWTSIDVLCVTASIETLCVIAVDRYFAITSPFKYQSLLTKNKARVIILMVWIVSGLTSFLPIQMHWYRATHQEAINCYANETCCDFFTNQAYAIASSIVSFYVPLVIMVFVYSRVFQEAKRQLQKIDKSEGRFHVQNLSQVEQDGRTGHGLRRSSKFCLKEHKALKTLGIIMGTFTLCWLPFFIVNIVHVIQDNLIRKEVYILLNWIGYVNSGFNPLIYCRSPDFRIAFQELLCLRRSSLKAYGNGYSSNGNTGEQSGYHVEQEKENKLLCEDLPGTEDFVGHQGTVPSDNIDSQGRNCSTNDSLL

[6] = molecular target: T4, Muscarinic acetylcholine receptor M2 (Homo sapiens, UniProt P08172); type: functional, cell-based
T4 sequence (P08172 whole entry): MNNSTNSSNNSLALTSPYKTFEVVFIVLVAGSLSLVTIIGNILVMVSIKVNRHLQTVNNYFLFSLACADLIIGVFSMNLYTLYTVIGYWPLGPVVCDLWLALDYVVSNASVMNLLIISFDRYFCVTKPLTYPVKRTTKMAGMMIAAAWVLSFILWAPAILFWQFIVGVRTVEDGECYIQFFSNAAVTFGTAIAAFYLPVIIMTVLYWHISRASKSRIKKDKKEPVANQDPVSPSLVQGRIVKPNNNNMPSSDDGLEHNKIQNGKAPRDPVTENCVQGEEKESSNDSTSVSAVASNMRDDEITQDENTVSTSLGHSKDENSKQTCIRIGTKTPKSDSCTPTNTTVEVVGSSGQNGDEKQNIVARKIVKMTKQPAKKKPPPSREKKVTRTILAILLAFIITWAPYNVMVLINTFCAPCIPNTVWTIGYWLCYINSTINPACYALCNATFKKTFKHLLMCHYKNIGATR

[7] = molecular target: Delta-type opioid receptor (Homo sapiens, UniProt P41143)
Chain of Delta-type opioid receptor (P41143 whole entry): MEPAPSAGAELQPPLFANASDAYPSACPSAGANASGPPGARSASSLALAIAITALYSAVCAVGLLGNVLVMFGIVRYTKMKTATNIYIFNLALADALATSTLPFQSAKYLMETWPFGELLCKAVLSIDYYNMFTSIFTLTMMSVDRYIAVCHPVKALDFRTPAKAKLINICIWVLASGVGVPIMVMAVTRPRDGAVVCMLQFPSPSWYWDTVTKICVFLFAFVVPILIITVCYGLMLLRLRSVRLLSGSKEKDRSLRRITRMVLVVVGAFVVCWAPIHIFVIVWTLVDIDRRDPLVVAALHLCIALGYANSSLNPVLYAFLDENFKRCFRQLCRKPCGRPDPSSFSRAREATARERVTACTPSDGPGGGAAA
Note: assay procedure not described here.

SMILES	AC50 [1]	AC50 [2]	AC50 [3]	AC50 [4]	AC50 [5]	AC50 [6]	AC50 [7]
CCC(NC(C)C)C(O)c1ccc(O)c2[nH]c(=O)ccc12 (centres undefined) [PROCATEROL]	> 30 µM	> 30 µM	> 30 µM	> 30 µM	0.2 µM	> 30 µM	> 30 µM
CCC(=O)O[C@](Cc1ccccc1)(c1ccccc1)[C@H](C)CN(C)C [PROPOXYPHENE]	> 30 µM	> 30 µM	> 30 µM	> 10 µM	> 10 µM	> 10 µM	11 µM
CCc1nc(N)nc(N)c1-c1ccc(Cl)cc1 [PYRIMETHAMINE]	> 10 µM	> 30 µM	12 µM	> 30 µM	> 10 µM	> 10 µM	> 30 µM
CC1=C(/C=C/C(C)=C/C=C/C(C)=C/CO)C(C)(C)CCC1 [RETINOL]	> 10 µM	> 10 µM	> 30 µM	> 10 µM	> 10 µM	> 10 µM	> 30 µM
C=CC[N+]1([C@H]2C[C@H]3[C@@H]4CC[C@H]5C[C@H](O)[C@@H](N6CCOCC6)C[C@]5(C)[C@H]4CC[C@]3(C)[C@H]2OC(C)=O)CCCC1 [ROCURONIUM]	> 30 µM	> 30 µM	> 30 µM	> 30 µM	> 30 µM	> 30 µM	> 30 µM
CCCN1CCCC[C@H]1C(=O)Nc1c(C)cccc1C [ROPIVACAINE]	> 30 µM	> 30 µM	> 30 µM	> 30 µM	> 30 µM	> 30 µM	> 30 µM
Cc1cc(C)nc(NS(=O)(=O)c2ccc(N)cc2)n1 [SULFAMETHAZINE]	> 10 µM	> 10 µM	> 30 µM	> 30 µM	> 10 µM	> 10 µM	> 30 µM
CCOC(=O)c1ccc(C#Cc2ccc3c(c2)C(C)(C)CCS3)nc1 [TAZAROTENE]	> 30 µM	> 30 µM	> 30 µM	> 10 µM	> 10 µM	> 10 µM	> 30 µM
Cn1c(=O)c2c(ncn2CCOC(=O)C(C)(C)Oc2ccc(Cl)cc2)n(C)c1=O [THEOFIBRATE]	> 30 µM	> 30 µM	> 30 µM	> 30 µM	> 30 µM	> 30 µM	> 30 µM
COc1cc(C(=O)NC2CCCNC2)cc(OC)c1OC (centres undefined) [TROXIPIDE]	> 10 µM	> 30 µM	> 30 µM	> 30 µM	> 30 µM	> 30 µM	> 30 µM
CC(C(=O)O)c1ccc2c(c1)CC(=O)c1ccccc1S2 (centres undefined) [ZALTOPROFEN]	> 30 µM	> 30 µM	24 µM	> 30 µM	> 30 µM	> 30 µM	> 30 µM
CC(c1cc2ccccc2s1)N(O)C(N)=O (centres undefined) [ZILEUTON]	> 30 µM	> 10 µM	> 30 µM	> 10 µM	> 10 µM	> 10 µM	> 30 µM
